Measurements from patent US20020058077A1, “Cancer chemotherapeutical and chemopreventive agent” (priority 2000, published 2002).
*1 amine or outer side, *2 acyl side, *3 side chain or, on linkers, in order; H or OH if unused. Where a SMILES comes first, the peptide text is derived from it. Bridges are numbered along the chain shown (N, C = ends). Roman numbers before positions name the chains, in order. [ ]: non-standard residue; d: D form. Actinocin(9to1) = Cc1c2oc3c(C)ccc(C(=O)[*:1])c3nc-2c(C(=O)[*:2])c(N)c1=O; NMeV = CN[C@H](C(=O)O)C(C)C; Sar = CNCC(=O)O

Assays:
PGE2 production = test: PGE2 level released from CNE1 cells by enzyme immunoassay (EIA); assay type: cell-based, human
Protocol: The PGE2 level in the cell culture medium after various treatments was determined using an EIA kit (Cayman) according to protocol from the manufacturer. Each sample was assayed at two dilutions and each dilution in triplets. The results were presented as the fold of increase comparing to that of the control group.

CNE1 cells = conditions: for apoptotic cell death in TNF-α treated cells after pretreatment: PDTC 25 μM, Act D 5 μg/ml, CHX 5 μg/ml or NS398 10 μM × 30 min
Protocol: (§1) TNF-α (final concentration 15 ng/ml) was used as the positive stimulus to promote NF-κB activation in cultured cells.
Apoptosis was determined by the following assays: (i) cell morphological alterations examined under an inverted microscope, (ii) PARP cleavage determined by western blot, and (iii) TUNEL assay which was analysed using both flow cytometry and confocal microscope (Shen et al., 2000), in both attached and detached cells after various treatments.

COX-2 [1] = test: RT-PCR analysis of COX-2 mRNA in TNF-α treated CNE1 cells; conditions: Act D 5 μg/ml × 30 min; TNF-α 15 ng/ml × 6 h
Protocol: as §1
RNA extraction was carried out using a total RNA extraction kit (TRIzol, Life Technologies). Briefly, cells were collected by scrapping after various treatments and washed with cold PBS once before they were lysed in the TRIzol reagent. […] Finally the RNA samples were dissolved in DEPC-H2O and quantified (1 A260=40 μg/ml). Five micrograms of total RNA from each sample were subjected to reverse transcription using Superscript II reverse transcriptase (Life Technologies) in a total volume of 50 μl. For PCR, all the amplification reactions were carried out in 20 μl which included 200 pmol of each primers, 200 μM of each dNTPs, and 0.5 units of DyNAzyme II. The PCR was performed for 30 cycles, using a program of 95° C. for 30 sec, 57° C. for 30 sec, and 72° C. for 30 sec, followed by a 10 min extension at 72° C., in a Biometra T-gradient Thermal Cycler. […] The PCR conditions were optimised to achieve exponential amplification in which the PCR product formation is proportional to the starting cDNA.

NF-κB = NF-κB luciferase reporter gene assay in transfected CNE1 cells; assay type: cell-based, human; conditions: PDTC 25 μM, Act D 5 μg/ml or CHX 5 μg/ml × 30 min; TNF-α 15 ng/ml × 24 h; order PDTC <Act D <CHX
Protocol: The pNF-κB-luc vector and the negative control pTAL-luc vector were purchased as part of the Mercury Pathway Profiling Luciferase System from Clontech Laboratories. […] The transient transfection of the above plasmids into cultured CNE1 cells were performed using TransFast™ Transfection Reagent (Promega) according to the manufacturer's protocol. Briefly, when cells reached about 80% confluence in 24-well plates (approximately 10×10^4 cells per well in 0.5 ml culture medium), the growth medium from each well was removed by aspiration. […] After incubated for 1 h at 37° C., 300 μl of prewarmed complete medium was added into each well and incubated for 24 h. Transfected cells were then subjected to various treatments. The luciferase activity was measured in the cellular extracts using a luciferase assay kit (Promega). Following the treatment, the cell lysate was collected from each well after the addition of 1× cell culture lysis reagent (50 μl/well, Promega). The relative light units (RLU) were then determined in a luminometer (Lumi-one, Trans Orchid, Tampa, Fla.) for a total period of 15 sec after a 5 sec delay time.

COX-2 [2] = test: COX-2 protein level in TNF-α treated CNE1 cells by western blot; conditions: CHX 5 μg/ml × 30 min; TNF-α 15 ng/ml × 24 h
Protocol: as §1
Various cell extracts (cytosolic, nuclear or whole cell) were prepared as described earlier. Equal amounts (30 μg) of protein were separated on SDS-polyacrylamide gel in the Mini-PROTEAN II system (Bio-Rad). After electrophoresis, the protein was transferred onto a Hybond-C nitrocellulose membrane (Amersham) at 4° C. using the Mini Trans-Blot Module (Bio-Rad). The membrane was blocked overnight with 5% nonfat milk in TBST (10 mM Tris-HCl, pH 7.5, 100 mM NaCl, 0.1% Tween 20), and then incubated with various primary antibodies for 2 h at room temperature. After 5 washes with TBST, the membrane was exposed to respective secondary antibodies for 1 h. The blots were detected using the enhanced chemiluminescence method (Pierce).

[3] = Act D 5 μg/ml × 30 min pretreatment, then TNF-α 15 ng/ml × 24 h

Structure (SMILES)	PGE2 production (PGE2 production; NS398 10 μM × 30 min, TNF-α 15 ng/ml × 24 h)	potency for the inhibition of PGE2 production compared with parthenolide (PGE2 production; TNF-α treated CNE1 cells)	apoptotic cell death in TNF-α treated cells after pretreatment (CNE1 cells; then TNF-α 15 ng/ml × 24 h)	apoptosis induction compared with parthenolide (CNE1 cells; TNF-α treated CNE1 cells)	PARP cleavage (CNE1 cells; [3])	detached apoptotic cells (CNE1 cells; [3]) [%]	COX-2 mRNA level (COX-2 [1])	NF-κB dependent transcription (luciferase) (NF-κB)	COX-2 protein level (COX-2 [2])
CS(=O)(=O)Nc1ccc([N+](=O)[O-])cc1OC1CCCCC1 [NS398]	completely abolished	higher potency	significantly enhanced	less effective					
Cc1c2oc3c(C)ccc(C(=O)N[C@@H]4C(=O)N[C@H](C(C)C)C(=O)N5CCC[C@H]5C(=O)N(C)CC(=O)N(C)[C@@H](C(C)C)C(=O)O[C@@H]4C)c3nc-2c(C(=O)N[C@@H]2C(=O)N[C@H](C(C)C)C(=O)N3CCC[C@H]3C(=O)N(C)CC(=O)N(C)[C@@H](C(C)C)C(=O)O[C@@H]2C)c(N)c1=O [Act D, actinomycin D] (I: T[dV]P[Sar][NMeV] / II: T[dV]P[Sar][NMeV]; ester I:1-I:C, II:1-II:C; linker I:N-II:N via Actinocin(9to1))			severe apoptosis		complete cleavage	~100	markedly reduced		
C[C@@H]1C[C@@H]([C@H](O)CC2CC(=O)NC(=O)C2)C(=O)[C@@H](C)C1 [CHX, cycloheximide]			severe apoptosis					capable of inhibiting	Significant reduction
